Entries after “also recorded” stand apart in the source; their conditions may differ. Where two headings read alike, the source gives them in different places.
Assays:
human Hv1 channel [1] = biological target: T1, human Hv1 channel (Homo sapiens, UniProt Q96D96); assay: Whole cell patch clamp recording of Hv1 proton currents in transfected HEK293T cells; assay type: cell-based; conditions: for V1/2 shift of G-V curve: Boltzmann fit; for pore blocker strength for Hv1 channel (in words): conclusion from patch clamp data
T1 construct: expressed in transfected cells; host or cells: HEK293T
T1 sequence (Q96D96 1-273): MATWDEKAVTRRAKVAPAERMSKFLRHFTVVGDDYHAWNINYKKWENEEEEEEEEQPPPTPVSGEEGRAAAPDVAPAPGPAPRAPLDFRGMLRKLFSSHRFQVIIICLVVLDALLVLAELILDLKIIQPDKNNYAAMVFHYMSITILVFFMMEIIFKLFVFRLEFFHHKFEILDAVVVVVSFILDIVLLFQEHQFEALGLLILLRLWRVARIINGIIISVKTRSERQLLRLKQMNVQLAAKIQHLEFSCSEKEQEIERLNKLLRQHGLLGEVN
From the text: For conducting experiments, we used HEK293T cells. The HEK293T cells were purchased from American Type Culture Collection (ATCC). For cell culture, the HEK293T cells were maintained in ATTC's Dulbecco's Modified Eagle's Medium (DMEM) supplemented with a 10% fetal bovine serum (FBS 10%) and 1% penicillin and streptomycin. Plasmids were transfected into cells using a transfection reagent, Lipofectamine™ 2000 according to the manufacturer's instructions (Life Technologies). Experiments were performed 24-48 hours post-transfection.
For the experimental studies, similar techniques as utilized by Zhao et. al is used in this invention. (Zhao et al., Role of human Hv1 channels in sperm capacitation and white blood cell respiratory burst established by a designed peptide inhibitor, Proc Natl Acad Sci USA. 2018, PMID: 30478045, PMCID: PMC6294887).
In the present invention, a Whole Cell patch clamp technique was utilized to study the Hv1 proton currents. The proton currents passed by Hv1 were recorded in Whole Cell mode using an Axon™ Axopatch™ 200B microelectrode amplifier. Stimulation and data collection were performed by a high-resolution, low-noise digitizer, Digidata 1322A, manufactured by Axon Instruments, Inc.) and Axon™ pCLAMP™ 10 Electrophysiology Data Acquisition & Analysis Software (released by Molecular Devices). Cells were perfused with an external bath solution comprised of a zwitterionic sulfonic acid buffering agent (100 mM HEPES), 100 mM NaCl, and 10 mM glucose at pH 7.5. During the patch clamp recording, the patch pipettes with a resistance between 3 and 5 MΩ were filled with 100 mM Bis-Tris buffer, 100 mM NaCl, and 10 mM glucose at pH 6.0. The sampling frequency was 10 kHz and the signals were filtered at 1 KHz.
Fractional unblocked current was assessed at the end of the test pulse.
Dose-response curves (the time course for block and unblock of Hv1 as shown in FIG. 9) show the fractional unblocked current, Icompound/Icontrol, versus toxin concentration. The curves were fit to the Hill equation, Fun=(1+([compound]/Ki)h)−1), wherein the [compound] is the effective compound concentration, Fun is the fraction of unblocked current at equilibrium. Ki is the inhibition constant and h is the Hill coefficient.

human Hv1 channel [2] = biological target: T1, human Hv1 channel; assay: as above; assay type: cell-based; conditions: calculated as Ki=Koff/Kon, read-out: inhibition constant Ki for Hv1 channels
[3] = 100 nM compound, at −20 mV, holding −60 mV

V1/2 shift of G-V curve (human Hv1 channel [1]; 100 nM compound) | block of Hv1 channel current (human Hv1 channel [1]; [3]) [%] | pore blocker strength for Hv1 channel (in words) (human Hv1 channel [1]) | Ki (human Hv1 channel [2]; I-V plot, −20 mV) [nM] | V1/2 shift of G-V curve (human Hv1 channel [1]; 10 μM compound, shift to the left) [mV] | block of Hv1 current (human Hv1 channel [1]; 10 μM compound, at −20 mV, holding −60 mV) [%] | Ki (human Hv1 channel [2]) [nM] | time course of block (washin) (human Hv1 channel [1]; 100 nM applied to Hv1 channels) | time course of unblock (washout) (human Hv1 channel [1]; washed away with isotonic saline) | Compound
about 35 mV | 85 | strong nano-molar pore blocker | 20 |  |  |  |  |  | O=C(O)[C@@H]1CS[C@H](c2ccccc2)N1 [S2, (2R,4R)-2-phenylthiazolidine-4-carboxylic acid]
 |  | weak pore blocker |  | ~15 | 20 | 3000 |  |  | C=C[C@@H]1CS[C@H](c2ccccc2)N1C(=O)OC(C)(C)C [Original Compound, (2R,4R)-tert-butyl 2Phenyl-4-vinylthiazolidine-3-carboxylate]

Compound | V1/2 shift of G-V curve (human Hv1 channel [1]; 100 nM compound) | block of Hv1 channel current (human Hv1 channel [1]; [3]) [%] | pore blocker strength for Hv1 channel (in words) (human Hv1 channel [1]) | Ki (human Hv1 channel [2]; I-V plot, −20 mV) [nM] | V1/2 shift of G-V curve (human Hv1 channel [1]; 10 μM compound, shift to the left) [mV] | block of Hv1 current (human Hv1 channel [1]; 10 μM compound, at −20 mV, holding −60 mV) [%] | Ki (human Hv1 channel [2]) [nM] | time course of block (washin) (human Hv1 channel [1]; 100 nM applied to Hv1 channels) | time course of unblock (washout) (human Hv1 channel [1]; washed away with isotonic saline)
CC(C)(C)OC(=O)N1[C@H](CO)CS[C@@H]1c1ccccc1 [S1, (2R,4R)-tert-butyl 4-(hydroxymethyl)-2-Phenylthiazolidine-3-carboxylate] | about 41 mV | 92 | strong nano-molar pore blocker; also recorded: relatively strong pore blocker | 3 |  |  |  | blocks the channel current immediately | the current resumes

Source: patent US20250333389A1, “PHARMACEUTICAL FOR THE INHIBITION OF CELLULAR PROTON PUMPS” (AquaRemedi Pharmaceuticals INC, priority 2024, published 2025)
